These results are taken from US11865176B2, “Compositions and methods of modulating anti-tumor immunity” (Dana-Farber Cancer Institute, Inc., priority 2016, dated 2024).

Where a name gives a salt, the structure may show the parent alone. Read-outs that look alike come from different tables or passages of the source.

In data set [1] the test system is PD-1-overexpressing Jurkat cells. The data set is described as follows: Small molecule screen: IL2 secretion (AlphaLISA) from stimulated PD-1-overexpressing Jurkat cells. It counts as cell-based, human. The essentials: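 Cells (100,000/well) with compound at 3.3 μM final, stimulated by α-CD3/α-CD28/α-PD-1 Dynabeads at an 8:1 bead:cell ratio. IL2 in supernatants measured by AlphaLISA. Hits scored ≥3 SD from the mean of DMSO-treated, α-PD-1-bead-stimulated controls.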
In general terms: In Alpha technology, singlet oxygen from a donor bead excites a nearby acceptor bead.

In data set [2] the target is T1, regulatory domain of human NFATc3 (residues 1-400) (UniProt Q12968).
T1 sequence: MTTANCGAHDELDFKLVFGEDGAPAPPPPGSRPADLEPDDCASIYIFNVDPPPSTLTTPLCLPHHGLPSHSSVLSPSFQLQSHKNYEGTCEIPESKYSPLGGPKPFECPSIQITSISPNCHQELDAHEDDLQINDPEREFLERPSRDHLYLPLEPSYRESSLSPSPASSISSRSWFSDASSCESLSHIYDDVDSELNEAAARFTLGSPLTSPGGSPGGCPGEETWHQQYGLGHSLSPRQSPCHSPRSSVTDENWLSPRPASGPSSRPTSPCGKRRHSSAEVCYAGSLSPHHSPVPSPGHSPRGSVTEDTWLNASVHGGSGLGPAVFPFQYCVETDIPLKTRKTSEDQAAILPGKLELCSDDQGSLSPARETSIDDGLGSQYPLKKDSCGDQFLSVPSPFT

[3] abbreviates: IL2 level, replicate 1, 3.3 μM compound, α-CD3/α-CD28/α-PD-1 beads.
The mark [4] stands for this setting: IL2 level, replicate 2, 3.3 μM compound, α-CD3/α-CD28/α-PD-1 beads.
Setting [5] is: average of replicate Z scores, 3.3 μM compound.

Regarding `O=C(Nc1ccc(Cl)cc1)c1ccccc1NCc1ccncc1` [VEGF Receptor Tyrosine Kinase Inhibitor II], the Zscore_1 in data set [1] (setting [3]) was −1.404. In data set [1] (setting [4]), this molecule displayed a Zscore_2 of −0.1009. The Zscore_AVG in data set [1] (setting [5]) is given as −0.7522.
In the case of `COc1cc2ncnc(Nc3cccc(O)c3)c2cc1OC` [WHI-P180, Hydrochloride], the Zscore_1 in data set [1] (setting [3]) is listed as −4.627. In data set [1] (setting [4]), this molecule had a Zscore_2 of −4.112. Besides, the Zscore_AVG in data set [1] (setting [5]) was −4.37.
`CCCCn1c2ccc(O)cc2c2c3c(c(-c4ccccc4Cl)cc21)C(=O)NC3=O` [Wee1 Inhibitor II] returned a Zscore_1 in data set [1] (setting [3]) of 0.7541. In data set [1] (setting [4]), the Zscore_2 is reported as −1.786. The molecule also showed a Zscore_AVG in data set [1] (setting [5]) of −0.5162.
Consider `O=C1NC(=O)c2c1c(-c1ccccc1Cl)cc1[nH]c3ccc(O)cc3c21` [Wee1 Inhibitor], for which the Zscore_1 in data set [1] (setting [3]) is recorded as −0.6621. This molecule also registered a Zscore_2 in data set [1] (setting [4]) of −2.209. Also, in data set [1] (setting [5]), the Zscore_AVG is listed as −1.436.
For the molecule `CCCCCCCCCCCCCCCCn1cc[n+](Cc2ccccc2)c1C.[I-]` [eEF-2 Kinase Inhibitor, NH125], the Zscore_1 in data set [1] (setting [3]) is given as −4.759. Moreover, in data set [1] (setting [4]), the Zscore_2 was −7.332. The molecule also yielded a Zscore_AVG in data set [1] (setting [5]) of −6.046.
The molecule `Oc1ccc2ccccc2c1SSc1c(O)ccc2ccccc12` [p21-Activated Kinase Inhibitor III, IPA-3] came in with a Zscore_1 in data set [1] (setting [3]) of −0.461. The molecule also registered a Zscore_2 in data set [1] (setting [4]) of 0.6426. This molecule also returned a Zscore_AVG in data set [1] (setting [5]) of 0.09079.
`CSc1nc(-c2ccnc(NC(C)c3ccccc3)c2)c(-c2ccc(F)cc2)[nH]1` (stereo not drawn) [p38 MAP Kinase Inhibitor III]: the Zscore_1 in data set [1] (setting [3]) is reported as −0.7009. The Zscore_2 in data set [1] (setting [4]) turned out to be 0.6426. The molecule also displayed a Zscore_AVG in data set [1] (setting [5]) of −0.02917.
With `O=S(=O)(c1c(O)c(Cl)cc(Cl)c1Cl)c1c(O)c(Cl)cc(Cl)c1Cl` [p38 MAP Kinase Inhibitor IV], the Zscore_1 in data set [1] (setting [3]) is −0.6495. In addition, in data set [1] (setting [4]), the Zscore_2 came out at 0.005311. In data set [1] (setting [5]), this molecule had a Zscore_AVG of −0.3221.
The corresponding values for `COc1cc(SC)ccc1C(=O)N1CCC(Cc2ccccc2)CC1` [p38 MAP Kinase Inhibitor VI, JX401] are −0.3753, −0.9241 and −0.6497.
In the same order, the values of `NC(=O)c1ccc2[nH]ccc2c1` [p38 MAP Kinase Inhibitor VII, SD-169] are 0.7558, 1.067 and 0.9116.
As to `O=c1c(-c2ccc(F)cc2)c(-c2ccncc2)[nH]n1-c1ccc(Cl)cc1` [p38 MAP Kinase Inhibitor], in data set [1], the Zscore_1 is reported as −0.7181, the Zscore_2 is listed as −1.986 and the Zscore_AVG is given as −1.352.
“Akt Inhibitor XII, Isozyme- Selective, Akti-2” showed a Zscore_1 in data set [1] (setting [3]) of 5.536. In addition, the Zscore_2 in data set [1] (setting [4]) worked out at 15.29. The Zscore_AVG in data set [1] (setting [5]) was found to be 10.41.
The corresponding values for CaMKII Inhibitor, CK59 are −0.8337, −0.5161 and −0.6749.
In the same order, the values of Cdk Inhibitor, p35 are −1.994, −1.733 and −1.864.
G&omul; 7874, Hydrochloride returned a Zscore_1 in data set [1] (setting [3]) of −4.465. In data set [1] (setting [4]), this molecule gave a Zscore_2 of −6.385. The Zscore_AVG in data set [1] (setting [5]) is reported as −5.425.
The corresponding values for GTP-14564 are −0.5638, 2.605 and 1.021.
As for IKK Inhibitor VII, in data set [1] (setting [3]), the Zscore_1 is −6.154. The same molecule displayed a Zscore_2 in data set [1] (setting [4]) of −3.033. Besides, the Zscore_AVG in data set [1] (setting [5]) is on record as −4.594.
Molecule IKK-2 Inhibitor XI showed a Zscore_1 in data set [1] (setting [3]) of −4.485. In data set [1] (setting [4]), this molecule gave a Zscore_2 of −6.012. Moreover, in data set [1] (setting [5]), the Zscore_AVG is recorded as −5.248.
On to Indirubin-3′-monoxime, for which the Zscore_1 in data set [1] (setting [3]) was found to be 2.085. Further, the Zscore_2 in data set [1] (setting [4]) is recorded as 1.884. For the same molecule, the Zscore_AVG in data set [1] (setting [5]) was determined as 1.985.
Isogranulatinude gave a Zscore_1 in data set [1] (setting [3]) of 1.39. In data set [1] (setting [4]), this molecule had a Zscore_2 of 4.572. The molecule further returned a Zscore_AVG in data set [1] (setting [5]) of 2.981.
Consider MEK1/2 Inhibitor II, for which, in data set [1] (setting [3]), the Zscore_1 is reported as −8.274. In data set [1] (setting [4]), this molecule yielded a Zscore_2 of −7.766. In addition, the Zscore_AVG in data set [1] (setting [5]) was −8.02.
The corresponding values for PDK1/Akt/Flt Dual Pathway Inhibitor are −10.05, −10.59 and −10.32.
Take PI 3-K&gamme;/CKII Inhibitor: the Zscore_1 in data set [1] (setting [3]) was −0.8209. In data set [1] (setting [4]), this molecule displayed a Zscore_2 of −0.5789. Further, the Zscore_AVG in data set [1] (setting [5]) is on record as −0.6999.
In data set [1] (setting [4]), PI 3-KbInhibitor II returned a Zscore_2 of 2.315. The Zscore_AVG in data set [1] (setting [5]) turned out to be 1.096.
Take PI 3-Kγ Inhibitor VII: the Zscore_1 in data set [1] (setting [3]) is −0.08397. In addition, the Zscore_2 in data set [1] (setting [4]) is recorded as −0.6851. Besides, in data set [1] (setting [5]), the Zscore_AVG is given as −0.3845.
In the same order, the values of PIM1 Kinase Inhibitor II are −1.398, −0.8562 and −1.127.
In the case of PIM1 Kinase Inhibitor IV, in data set [1] (setting [3]), the Zscore_1 is −1.455. Besides, in data set [1] (setting [4]), the Zscore_2 is listed as −0.7294. This molecule also showed a Zscore_AVG in data set [1] (setting [5]) of −1.092.
The corresponding values for PIM1/2 Kinase Inhibitor V are −0.917, 0.2008 and −0.3581.
In the same order, the values of Polo-like Kinase Inhibitor I are −0.8886, 0.6237 and −0.1325.
In the case of Scytonemin, Lyngbya sp., the Zscore_1 in data set [1] (setting [3]) worked out at 0.1217. This molecule also had a Zscore_2 in data set [1] (setting [4]) of −0.3399. In addition, the Zscore_AVG in data set [1] (setting [5]) is given as −0.1091.
Staurosporine, N-benzoyl- registered a Zscore_1 in data set [1] (setting [3]) of −5.987. For the same molecule, in data set [1] (setting [4]), the Zscore_2 is −7.072. In data set [1] (setting [5]), this molecule had a Zscore_AVG of −6.529.
In data set [1] (setting [3]), Tpl2 Kinase Inhibitor II returned a Zscore_1 of −2.398. Moreover, in data set [1] (setting [4]), the Zscore_2 is listed as −4.19. Also, the Zscore_AVG in data set [1] (setting [5]) is −3.294.
The corresponding values for VEGFR Tyrosine Kinase Inhibitor IV are −0.8723, −2.305 and −1.589.
In the same order, the values of p38 MAP Kinase Inhibitor VIII are −1.144, −1.448 and −1.296.
Take recombinant CDK4/cyclin D1: in data set [2], the “in vitro phosphorylation of 15N-labeled NFATc3 (1-400), followed by 2D 15N-HSQC NMR” value is listed as “However, this did not occur when NFAT4 was incubated with CDK4”.
